Numbers after ± are expanded uncertainties.
Assay: molar heat capacity at constant pressure; xn = mol fraction of the nth substance listed
Conditions: 101.3 kPa, Liquid, Small sample (50 mg) DSC

CCC(C)(C)O [2-methylbutan-2-ol] + CCCCCCC
Conditions	molar heat capacity at constant pressure [J/K/mol]
292.14 K, x1 = 0.9609	240.86 ± 3.7
292.16 K, x1 = 0.0249	228.51 ± 3.5
293.14 K, x1 = 0.0061	223.05 ± 3.5
293.14 K, x1 = 0.0249	228.85 ± 3.5
293.14 K, x1 = 0.0494	233.49 ± 3.6
293.14 K, x1 = 0.1	238.13 ± 3.7
293.14 K, x1 = 0.1547	240.82 ± 3.7
293.14 K, x1 = 0.1999	242.32 ± 3.8
293.14 K, x1 = 0.2993	244.48 ± 3.8
293.14 K, x1 = 0.4051	245.2 ± 3.8
293.14 K, x1 = 0.4986	245.35 ± 3.8
293.14 K, x1 = 0.5981	245.12 ± 3.8
293.14 K, x1 = 0.7015	244.38 ± 3.8
293.14 K, x1 = 0.8023	243.13 ± 3.8
293.14 K, x1 = 0.9139	242.22 ± 3.8
293.14 K, x1 = 0.9609	241.95 ± 3.8
294.15 K, x1 = 0.0061	223.39 ± 3.5
294.15 K, x1 = 0.0249	229.18 ± 3.5
294.15 K, x1 = 0.0494	233.86 ± 3.6
294.15 K, x1 = 0.1	238.71 ± 3.7
294.15 K, x1 = 0.1547	241.58 ± 3.7
294.15 K, x1 = 0.1999	243.15 ± 3.8
294.15 K, x1 = 0.2993	245.43 ± 3.8
294.15 K, x1 = 0.4051	246.27 ± 3.8
294.15 K, x1 = 0.4986	246.46 ± 3.8
294.15 K, x1 = 0.5981	246.23 ± 3.8
294.15 K, x1 = 0.7015	245.52 ± 3.8
294.15 K, x1 = 0.8023	244.34 ± 3.8
294.15 K, x1 = 0.9139	243.38 ± 3.8
294.15 K, x1 = 0.9609	243.11 ± 3.8
295.14 K, x1 = 0.0061	223.7 ± 3.5
295.14 K, x1 = 0.0249	229.37 ± 3.5
295.14 K, x1 = 0.0494	234.25 ± 3.6
295.14 K, x1 = 0.1	239.22 ± 3.7
295.14 K, x1 = 0.1547	242.31 ± 3.8
295.14 K, x1 = 0.1999	243.96 ± 3.8
295.14 K, x1 = 0.2993	246.32 ± 3.8
295.14 K, x1 = 0.4051	247.28 ± 3.8
295.14 K, x1 = 0.4986	247.54 ± 3.8
295.14 K, x1 = 0.5981	247.38 ± 3.8
295.14 K, x1 = 0.7015	246.7 ± 3.8
295.14 K, x1 = 0.8023	245.54 ± 3.8
295.14 K, x1 = 0.9139	244.5 ± 3.8
295.14 K, x1 = 0.9609	244.22 ± 3.8
296.14 K, x1 = 0.0061	223.96 ± 3.5
296.14 K, x1 = 0.0249	229.63 ± 3.6
296.14 K, x1 = 0.0494	234.59 ± 3.6
296.14 K, x1 = 0.1	239.76 ± 3.7
296.14 K, x1 = 0.1547	242.94 ± 3.8
296.14 K, x1 = 0.1999	244.6 ± 3.8
296.14 K, x1 = 0.2993	247.2 ± 3.8
296.14 K, x1 = 0.4051	248.27 ± 3.9
296.14 K, x1 = 0.4986	248.61 ± 3.9
296.14 K, x1 = 0.5981	248.5 ± 3.9
296.14 K, x1 = 0.7015	247.88 ± 3.8
296.14 K, x1 = 0.8023	246.68 ± 3.8
296.14 K, x1 = 0.9139	245.64 ± 3.8
296.14 K, x1 = 0.9609	245.31 ± 3.8
297.15 K, x1 = 0.0061	224.33 ± 3.5
297.15 K, x1 = 0.0249	229.81 ± 3.6
297.15 K, x1 = 0.0494	235.01 ± 3.6
297.15 K, x1 = 0.1	240.36 ± 3.7
297.15 K, x1 = 0.1547	243.63 ± 3.8
297.15 K, x1 = 0.1999	245.46 ± 3.8
297.15 K, x1 = 0.2993	248.18 ± 3.8
297.15 K, x1 = 0.4051	249.33 ± 3.9
297.15 K, x1 = 0.4986	249.76 ± 3.9
297.15 K, x1 = 0.5981	249.72 ± 3.9
297.15 K, x1 = 0.7015	249.04 ± 3.9
297.15 K, x1 = 0.8023	247.89 ± 3.8
297.15 K, x1 = 0.9139	246.86 ± 3.8
297.15 K, x1 = 0.9609	246.4 ± 3.8
298.14 K, x1 = 0.0061	224.65 ± 3.5
298.14 K, x1 = 0.0249	230.08 ± 3.6
298.14 K, x1 = 0.0494	235.35 ± 3.6
298.14 K, x1 = 0.1	240.89 ± 3.7
298.14 K, x1 = 0.1547	244.27 ± 3.8
298.14 K, x1 = 0.1999	246.18 ± 3.8
298.14 K, x1 = 0.2993	249.05 ± 3.9
298.14 K, x1 = 0.4051	250.35 ± 3.9
298.14 K, x1 = 0.4986	250.83 ± 3.9
298.14 K, x1 = 0.5981	250.81 ± 3.9
298.14 K, x1 = 0.7015	250.24 ± 3.9
298.14 K, x1 = 0.8023	249.08 ± 3.9
298.14 K, x1 = 0.9139	247.97 ± 3.8
298.14 K, x1 = 0.9609	247.48 ± 3.8
298.16 K, x1 = 0.0061	224.66 ± 3.5
298.16 K, x1 = 0.0249	230.09 ± 3.6
298.16 K, x1 = 0.0494	235.36 ± 3.6
298.16 K, x1 = 0.1	240.91 ± 3.7
298.16 K, x1 = 0.1547	244.3 ± 3.8
298.16 K, x1 = 0.1999	246.2 ± 3.8
298.16 K, x1 = 0.2993	249.07 ± 3.9
298.16 K, x1 = 0.4051	250.39 ± 3.9
298.16 K, x1 = 0.4986	250.87 ± 3.9
298.16 K, x1 = 0.5981	250.84 ± 3.9
298.16 K, x1 = 0.7015	250.29 ± 3.9
298.16 K, x1 = 0.8023	249.11 ± 3.9
298.16 K, x1 = 0.9139	248 ± 3.8
298.16 K, x1 = 0.9609	247.52 ± 3.8
299.14 K, x1 = 0.0061	224.99 ± 3.5
299.14 K, x1 = 0.0249	230.35 ± 3.6
299.14 K, x1 = 0.0494	235.67 ± 3.6
299.14 K, x1 = 0.1	241.48 ± 3.7
299.14 K, x1 = 0.1547	244.98 ± 3.8
299.14 K, x1 = 0.1999	246.99 ± 3.8
299.14 K, x1 = 0.2993	249.97 ± 3.9
299.14 K, x1 = 0.4051	251.31 ± 3.9
299.14 K, x1 = 0.4986	251.91 ± 3.9
299.14 K, x1 = 0.5981	251.9 ± 3.9
299.14 K, x1 = 0.7015	251.35 ± 3.9
299.14 K, x1 = 0.8023	250.25 ± 3.9
299.14 K, x1 = 0.9139	249.1 ± 3.9
299.14 K, x1 = 0.9609	248.6 ± 3.9
300.15 K, x1 = 0.0061	225.26 ± 3.5
300.15 K, x1 = 0.0249	230.51 ± 3.6
300.15 K, x1 = 0.0494	236 ± 3.7
300.15 K, x1 = 0.1	241.9 ± 3.8
300.15 K, x1 = 0.1547	245.57 ± 3.8
300.15 K, x1 = 0.1999	247.7 ± 3.8
300.15 K, x1 = 0.2993	250.81 ± 3.9
300.15 K, x1 = 0.4051	252.27 ± 3.9
300.15 K, x1 = 0.4986	252.92 ± 3.9
300.15 K, x1 = 0.5981	253 ± 3.9
